According to paper PMC5218480 (PLoS ONE, 2017):

Test system: MV-4-11 cells
Test: Gene expression microarray analysis (Affymetrix PrimeView) and GSEA
Assay type: cell-based, human
Design: RFU PODN (11730768_x_at) / Fold change /veh PODN (11730768_x_at) / RFU LINC00158 (11744669_a_at) / Fold change /veh LINC00158 (11744669_a_at) / RFU DUSP10 (11751237_a_at) / Fold change /veh DUSP10 (11751237_a_at) / RFU ID3 (11757404_x_at) / Fold change /veh ID3 (11757404_x_at) / RFU PLEKHG5 (11737974_s_at) / Fold change /veh PLEKHG5 (11737974_s_at) / RFU LRRC4B (11730491_at) / Fold change /veh LRRC4B (11730491_at) / RFU GIMAP4 (11747438_a_at) / Fold change /veh GIMAP4 (11747438_a_at) / RFU KRT8 (11758183_x_at) / Fold change /veh KRT8 (11758183_x_at) / RFU CNN1 (11734310_a_at) / Fold change /veh CNN1 (11734310_a_at) / RFU VPS37D (11726825_at) / Fold change /veh VPS37D (11726825_at) / RFU C10orf10 (11716522_x_at) / Fold change /veh C10orf10 (11716522_x_at) / RFU KIR2DL2 /// KIR2DL4 /// KIR2DL5A /// KIR2DL5B /// KIR2DS1 /// KIR2DS2 /// KIR2DS3 /// KIR2DS4 /// KIR3DL3 /// KIR3DL3 /// KIR3DS1 (11738374_at) / Fold change /veh KIR2DL2 /// KIR2DL4 /// KIR2DL5A /// KIR2DL5B /// KIR2DS1 /// KIR2DS2 /// KIR2DS3 /// KIR2DS4 /// KIR3DL3 /// KIR3DL3 /// KIR3DS1 (11738374_at) / RFU C1QL1 (11718748_at) / Fold change /veh C1QL1 (11718748_at) / RFU TMPRSS4 (11747572_a_at) / Fold change /veh TMPRSS4 (11747572_a_at) / RFU HAMP (11756126_x_at) / Fold change /veh HAMP (11756126_x_at) / RFU RNFT2 (11725882_a_at) / Fold change /veh RNFT2 (11725882_a_at) / RFU NR4A2 (11747474_a_at) / Fold change /veh NR4A2 (11747474_a_at) / RFU ABCC12 (11746883_a_at) / Fold change /veh ABCC12 (11746883_a_at) / RFU TMEM136 (11760407_x_at) / Fold change /veh TMEM136 (11760407_x_at) / RFU CLDN22 /// WWC2 (11732394_at) / Fold change /veh CLDN22 /// WWC2 (11732394_at) / RFU HLA-DPB1 (11760878_x_at) / Fold change /veh HLA-DPB1 (11760878_x_at) / RFU SPINT1 (11716480_a_at) / Fold change /veh SPINT1 (11716480_a_at) / RFU GAP43 (11754022_s_at) / Fold change /veh GAP43 (11754022_s_at) / RFU A4GNT (11735810_at) / Fold change /veh A4GNT (11735810_at) / RFU PRB3 (11715151_x_at) / Fold change /veh PRB3 (11715151_x_at) / RFU TUBB4B (11761932_at) / Fold change /veh TUBB4B (11761932_at) / RFU CAPN14 (11732068_a_at) / Fold change /veh CAPN14 (11732068_a_at) / RFU TMCC2 (11721928_a_at) / Fold change /veh TMCC2 (11721928_a_at) / RFU IRGQ (11745062_a_at) / Fold change /veh IRGQ (11745062_a_at) / RFU FAM174B (11720279_a_at) / Fold change /veh FAM174B (11720279_a_at) / RFU TMPRSS4 (11748680_a_at) / Fold change /veh TMPRSS4 (11748680_a_at) / RFU FAM212B (11763350_a_at) / Fold change /veh FAM212B (11763350_a_at) / RFU PLEKHG5 (11743358_a_at) / Fold change /veh PLEKHG5 (11743358_a_at) / RFU ZSCAN30 (11745921_a_at) / Fold change /veh ZSCAN30 (11745921_a_at) / RFU CMKLR1 (11741424_a_at) / Fold change /veh CMKLR1 (11741424_a_at) / RFU LOC101060620 /// MAPK8IP1 (11723275_at) / Fold change /veh LOC101060620 /// MAPK8IP1 (11723275_at) / RFU SPTSSB (11747773_x_at) / Fold change /veh SPTSSB (11747773_x_at) / RFU PRSS12 (11739890_at) / Fold change /veh PRSS12 (11739890_at) / RFU BIN1 (11741810_x_at) / Fold change /veh BIN1 (11741810_x_at) / RFU WNT11 (11732464_a_at) / Fold change /veh WNT11 (11732464_a_at) / RFU C10orf10 (11716521_a_at) / Fold change /veh C10orf10 (11716521_a_at) / RFU C5orf56 (11738089_at) / Fold change /veh C5orf56 (11738089_at) / RFU CYB561 (11721691_x_at) / Fold change /veh CYB561 (11721691_x_at) / RFU ANKRD19P (11752326_a_at) / Fold change /veh ANKRD19P (11752326_a_at) / RFU OR2T12 /// OR2T33 /// OR2T8 (11738714_s_at) / Fold change /veh OR2T12 /// OR2T33 /// OR2T8 (11738714_s_at) / RFU VCAN (11748164_a_at) / Fold change /veh VCAN (11748164_a_at) / RFU JSRP1 (11732532_at) / Fold change /veh JSRP1 (11732532_at) / RFU KRTAP10-11 (11738290_x_at) / Fold change /veh KRTAP10-11 (11738290_x_at) / RFU MYO3A (11730013_a_at) / Fold change /veh MYO3A (11730013_a_at) / RFU EBF3 (11725865_a_at) / Fold change /veh EBF3 (11725865_a_at) / RFU CAMK2N1 (11719241_x_at) / Fold change /veh CAMK2N1 (11719241_x_at) / RFU C5orf56 (11738088_a_at) / Fold change /veh C5orf56 (11738088_a_at) / RFU OLFML3 (11715873_a_at) / Fold change /veh OLFML3 (11715873_a_at) / RFU LOC100653217 /// NTM (11731650_a_at) / Fold change /veh LOC100653217 /// NTM (11731650_a_at) / RFU MAPK11 (11762145_a_at) / Fold change /veh MAPK11 (11762145_a_at) / RFU FIZ1 (11724087_x_at) / Fold change /veh FIZ1 (11724087_x_at) / RFU OASL (11726364_x_at) / Fold change /veh OASL (11726364_x_at) / RFU SOX15 (11748057_x_at) / Fold change /veh SOX15 (11748057_x_at) / RFU CD79A (11719716_a_at) / Fold change /veh CD79A (11719716_a_at) / RFU HIST1H1D (11736915_at) / Fold change /veh HIST1H1D (11736915_at) / RFU CASKIN2 (11723855_a_at) / Fold change /veh CASKIN2 (11723855_a_at) / RFU LOC730098 (11760151_x_at) / Fold change /veh LOC730098 (11760151_x_at) / RFU OR4N2 (11742367_at) / Fold change /veh OR4N2 (11742367_at) / RFU PRRT2 (11749266_a_at) / Fold change /veh PRRT2 (11749266_a_at) / RFU SNX32 (11753110_a_at) / Fold change /veh SNX32 (11753110_a_at) / RFU CDHR5 (11726645_a_at) / Fold change /veh CDHR5 (11726645_a_at) / RFU RCAN1 (11760418_a_at) / Fold change /veh RCAN1 (11760418_a_at) / RFU FAM167A (11723789_a_at) / Fold change /veh FAM167A (11723789_a_at) / RFU FAM26E (11764081_at) / Fold change /veh FAM26E (11764081_at) / RFU ISYNA1 (11749810_s_at) / Fold change /veh ISYNA1 (11749810_s_at) / RFU ACY1 (11761880_at) / Fold change /veh ACY1 (11761880_at) / RFU 11764098_at / Fold change /veh 11764098_at / RFU SAMD14 (11745864_x_at) / Fold change /veh SAMD14 (11745864_x_at) / RFU NPB (11741838_a_at) / Fold change /veh NPB (11741838_a_at) / RFU TMPRSS6 (11731388_a_at) / Fold change /veh TMPRSS6 (11731388_a_at) / RFU KRTAP10-2 (11738614_at) / Fold change /veh KRTAP10-2 (11738614_at) / RFU ARHGAP8 /// PRR5-ARHGAP8 (11727945_x_at) / Fold change /veh ARHGAP8 /// PRR5-ARHGAP8 (11727945_x_at) / RFU KRTAP5-7 /// NADSYN1 (11734609_at) / Fold change /veh KRTAP5-7 /// NADSYN1 (11734609_at) / RFU RASL12 (11751679_a_at) / Fold change /veh RASL12 (11751679_a_at) / RFU CDKN2B (11736163_a_at) / Fold change /veh CDKN2B (11736163_a_at) / RFU PRF1 (11729649_at) / Fold change /veh PRF1 (11729649_at) / RFU, ZNF638 /// ZNF638-IT1 / Fold change vs veh, ZNF638 /// ZNF638-IT1 / RFU, PANK3 / Fold change vs veh, PANK3 / RFU, SH3YL1 / Fold change vs veh, SH3YL1 / RFU, ZEB2 / Fold change vs veh, ZEB2 / RFU, NRIP1 / Fold change vs veh, NRIP1 / RFU, PTTG1IP / Fold change vs veh, PTTG1IP / RFU, CAPN2 / Fold change vs veh, CAPN2 / RFU, MED14 / Fold change vs veh, MED14 / RFU, SNORA58 / Fold change vs veh, SNORA58 / RFU, C1orf63 / Fold change vs veh, C1orf63 / RFU, LRRFIP1 / Fold change vs veh, LRRFIP1 / RFU, NDUFAF7 / Fold change vs veh, NDUFAF7 / RFU, SLC12A2 / Fold change vs veh, SLC12A2 / RFU, IBTK / Fold change vs veh, IBTK / RFU, ESF1 / Fold change vs veh, ESF1 / Fold change vs veh, TMEM50B / RFU, TAOK1 / Fold change vs veh, TAOK1 / RFU, ACBD3 / Fold change vs veh, ACBD3 / RFU, TMA16 / Fold change vs veh, TMA16 / RFU, RWDD3 / Fold change vs veh, RWDD3 / RFU, BCAT1 / Fold change vs veh, BCAT1 / RFU, EDEM3 / Fold change vs veh, EDEM3 / RFU, TMEM33 / Fold change vs veh, TMEM33 / RFU, WDR75 / Fold change vs veh, WDR75 / RFU, AHCTF1 / Fold change vs veh, AHCTF1 / RFU, TFRC / Fold change vs veh, TFRC / RFU, ZDHHC17 / Fold change vs veh, ZDHHC17 / RFU, NOM1 / Fold change vs veh, NOM1 / RFU, ARL8B / Fold change vs veh, ARL8B / RFU, ZBTB11 / Fold change vs veh, ZBTB11 / RFU, TAMM41 / Fold change vs veh, TAMM41 / RFU, KIAA1704 /// LOC100996395 / Fold change vs veh, KIAA1704 /// LOC100996395 / RFU, ING1 / Fold change vs veh, ING1 / RFU, TRMT61B / Fold change vs veh, TRMT61B / RFU, FUBP3 / Fold change vs veh, FUBP3 / RFU, TP53 / Fold change vs veh, TP53 / RFU, TNKS2 / Fold change vs veh, TNKS2 / RFU, ZFP14 / Fold change vs veh, ZFP14 / RFU, ACTR2 / Fold change vs veh, ACTR2 / RFU, PPP3R1 / Fold change vs veh, PPP3R1 / RFU, PIK3R1 / Fold change vs veh, PIK3R1 / RFU, HNRNPA1 / Fold change vs veh, HNRNPA1 / RFU, RNF170 / Fold change vs veh, RNF170 / RFU, ZNF28 / Fold change vs veh, ZNF28 / RFU, RNGTT / Fold change vs veh, RNGTT / RFU, OGT / Fold change vs veh, OGT / RFU, BRD1 / Fold change vs veh, BRD1 / RFU, MARS / Fold change vs veh, MARS / RFU, ZNF655 / Fold change vs veh, ZNF655 / RFU, FAHD1 / Fold change vs veh, FAHD1 / RFU, BDP1 / Fold change vs veh, BDP1 / RFU, LRRCC1 / Fold change vs veh, LRRCC1 / RFU, ARID1A / Fold change vs veh, ARID1A / RFU, ZNF146 / Fold change vs veh, ZNF146 / RFU, ZNF330 / Fold change vs veh, ZNF330 / RFU, GPN3 / Fold change vs veh, GPN3 / RFU, C9orf123 / Fold change vs veh, C9orf123 / RFU, N4BP2L2 / Fold change vs veh, N4BP2L2 / RFU, ARFIP1 / Fold change vs veh, ARFIP1 / RFU, FAM179B / Fold change vs veh, FAM179B / RFU, BCL10 / Fold change vs veh, BCL10 / RFU, UHRF1BP1L / Fold change vs veh, UHRF1BP1L / RFU, BET1 / Fold change vs veh, BET1 / RFU, CNOT2 / Fold change vs veh, CNOT2 / RFU, ZNF268 / Fold change vs veh, ZNF268 / Fold change vs veh, ZNF507 / RFU, DGCR2 / Fold change vs veh, DGCR2 / RFU, WDSUB1 / Fold change vs veh, WDSUB1 / Fold change vs veh, HSP90B1 /// MIR3652 / RFU, ADSS / Fold change vs veh, ADSS / RFU, GK / Fold change vs veh, GK / RFU, ZNF148 / Fold change vs veh, ZNF148 / RFU, TAF9 / Fold change vs veh, TAF9 / RFU, SLC1A5 / Fold change vs veh, SLC1A5 / RFU, SLMO2 / Fold change vs veh, SLMO2 / RFU, ABCC4 / Fold change vs veh, ABCC4 / RFU, LOC101060439 /// RAP1B / Fold change vs veh, LOC101060439 /// RAP1B / RFU, RFX7 / Fold change vs veh, RFX7 / RFU, GTPBP10 / Fold change vs veh, GTPBP10 / RFU, CNEP1R1 / Fold change vs veh, CNEP1R1 / RFU, BIVM-ERCC5 /// ERCC5 / Fold change vs veh, BIVM-ERCC5 /// ERCC5 / RFU, ILF3 / Fold change vs veh, ILF3 / RFU 11762660_at / Fold change /veh 11762660_at / RFU VCAN (11757783_s_at) / Fold change /veh VCAN (11757783_s_at) / RFU DDX43 (11728927_at) / Fold change /veh DDX43 (11728927_at) / RFU KRT8 (11758188_x_at) / Fold change /veh KRT8 (11758188_x_at) / RFU NKD1 (11759106_at) / Fold change /veh NKD1 (11759106_at) / RFU SRD5A1 (11742802_a_at) / Fold change /veh SRD5A1 (11742802_a_at) / RFU TPSAB1 /// TPSB2 (11721975_s_at) / Fold change /veh TPSAB1 /// TPSB2 (11721975_s_at) / RFU GSTM3 (11746129_a_at) / Fold change /veh GSTM3 (11746129_a_at) / RFU IL23R (11737362_x_at) / Fold change /veh IL23R (11737362_x_at) / RFU TMEM51 (11727254_a_at) / Fold change /veh TMEM51 (11727254_a_at) / RFU PIWIL2 (11732686_x_at) / Fold change /veh PIWIL2 (11732686_x_at) / RFU ORM1 (11744905_x_at) / Fold change /veh ORM1 (11744905_x_at) / RFU CCDC152 (11743942_at) / Fold change /veh CCDC152 (11743942_at) / RFU ECM1 (11717891_a_at) / Fold change /veh ECM1 (11717891_a_at) / RFU IL23R (11748794_a_at) / Fold change /veh IL23R (11748794_a_at) / RFU TNFAIP8L3 (11732012_x_at) / Fold change /veh TNFAIP8L3 (11732012_x_at) / RFU MBOAT4 (11741988_at) / Fold change /veh MBOAT4 (11741988_at) / RFU 11764193_at / Fold change /veh 11764193_at / RFU TMEM53 (11763286_at) / Fold change /veh TMEM53 (11763286_at) / RFU MAGEB2 (11727129_at) / Fold change /veh MAGEB2 (11727129_at) / RFU TMEM200A (11744735_a_at) / Fold change /veh TMEM200A (11744735_a_at) / RFU CCDC152 (11751479_a_at) / Fold change /veh CCDC152 (11751479_a_at) / RFU FAM211A (11726209_a_at) / Fold change /veh FAM211A (11726209_a_at) / RFU RGS16 (11746705_a_at) / Fold change /veh RGS16 (11746705_a_at) / RFU VCAN (11755009_s_at) / Fold change /veh VCAN (11755009_s_at) / RFU RHOB (11743442_s_at) / Fold change /veh RHOB (11743442_s_at) / RFU RGS16 (11720943_a_at) / Fold change /veh RGS16 (11720943_a_at) / RFU RGS16 (11720944_at) / Fold change /veh RGS16 (11720944_at) / RFU, VPS4B / Fold change vs veh, VPS4B / RFU, CREB1 / Fold change vs veh, CREB1 / RFU, DNAJC13 / Fold change vs veh, DNAJC13 / RFU, GNAQ / Fold change vs veh, GNAQ / RFU, CDK5R1 / Fold change vs veh, CDK5R1 / RFU, ZRANB3 / Fold change vs veh, ZRANB3 / RFU, CUL4A / Fold change vs veh, CUL4A / RFU, CCNY / Fold change vs veh, CCNY / RFU, UFL1 / Fold change vs veh, UFL1 / RFU, COG3 / Fold change vs veh, COG3 / RFU, DIAPH2 / Fold change vs veh, DIAPH2 / RFU, SKA2 / Fold change vs veh, SKA2 / RFU, AFF3 / Fold change vs veh, AFF3 / RFU, LMF1 / Fold change vs veh, LMF1 / RFU, IPO11 / Fold change vs veh, IPO11 / RFU, DFFB / Fold change vs veh, DFFB / RFU, FOXP1 / Fold change vs veh, FOXP1 / RFU, CARD8 / Fold change vs veh, CARD8 / RFU, STRN3 / Fold change vs veh, STRN3 / RFU, ADK / Fold change vs veh, ADK / RFU, RASSF2 / Fold change vs veh, RASSF2 / RFU, WIPF1 / Fold change vs veh, WIPF1 / RFU, LARP1B / Fold change vs veh, LARP1B / RFU, RASA1 / Fold change vs veh, RASA1 / RFU, RB1 / Fold change vs veh, RB1 / RFU, PPFIA1 / Fold change vs veh, PPFIA1 / RFU, MAT2A / Fold change vs veh, MAT2A / RFU, CCT5 / Fold change vs veh, CCT5 / RFU, WDR92 / Fold change vs veh, WDR92 / RFU, CUX1 / Fold change vs veh, CUX1 / RFU, TTC7A / Fold change vs veh, TTC7A / RFU, TMEM135 / Fold change vs veh, TMEM135 / RFU, DEPTOR / Fold change vs veh, DEPTOR / RFU, CPM / Fold change vs veh, CPM / RFU, DNAJB6 / Fold change vs veh, DNAJB6 / RFU, CACNA2D3 / Fold change vs veh, CACNA2D3 / RFU, DTX4 / Fold change vs veh, DTX4 / RFU, TFCP2 / Fold change vs veh, TFCP2 / RFU, GMCL1 /// GMCL1P1 / Fold change vs veh, GMCL1 /// GMCL1P1 / RFU, AEBP2 / Fold change vs veh, AEBP2 / RFU, SNHG1 /// SNORD22 /// SNORD25 /// SNORD26 /// SNORD27 /// SNORD28 /// SNORD29 /// SNORD31 / Fold change vs veh, SNHG1 /// SNORD22 /// SNORD25 /// SNORD26 /// SNORD27 /// SNORD28 /// SNORD29 /// SNORD31 / Fold change (Aza/veh), C12orf56 (ProbeSet 11735607_a_at) / Fold change (ACY-1035/veh), C12orf56 (ProbeSet 11735607_a_at) / Fold change (Aza/veh), FGFR1OP (ProbeSet 11751329_s_at) / Fold change (ACY-1035/veh), FGFR1OP (ProbeSet 11751329_s_at) / Fold change (Aza/veh), VPS36 (ProbeSet 11739960_a_at) / Fold change (ACY-1035/veh), VPS36 (ProbeSet 11739960_a_at) / RFU SYPL1 (11715823_x_at) / Fold change /veh SYPL1 (11715823_x_at) / RFU IGFBP7 (11715501_s_at) / Fold change /veh IGFBP7 (11715501_s_at) / RFU REEP3 (11722064_at) / Fold change /veh REEP3 (11722064_at) / RFU IGLL1 (11728026_x_at) / Fold change /veh IGLL1 (11728026_x_at): dose or concentration left out as unconfirmed
Conditions: ProbeSet 11718701_a_at; LIST B

Compound: Nc1ncn([C@@H]2O[C@H](CO)[C@@H](O)[C@H]2O)c(=O)n1 [azacitidine]
- RFU, ARFIP1: 68.44 RFU
